This is an account of results in patent US20120122728A1, “Method Of Screening Drugs For Reversal Of Amyloid Beta Neurotoxicity” (UNIVERSITY OF CENTRAL FLORIDA RESEARCH FOUNDATION, INC., priority 2009, published 2012).

The test system of data set [1] is cultured embryonic rat hippocampal neurons. The experiment in a line: MEA extracellular recording of spontaneous firing of cultured hippocampal neurons exposed to Aβ. The class given is cell-based. Also noted: time until spiking activity of the cells stopped: dose or concentration left out as unconfirmed. Here is the method: The MEAs and accompanying accessories, including the temperature controller, stimulator, amplifier and MC_Rack V 3.5.8 data acquisition software were obtained from ALA Scientific (Westbury, N.Y.) and Multichannel Systems (Reutlingen, Germany). The MEAs comprised of a glass base that acted as a substrate, gold connector contacts and electrodes composed of titanium nitride. Rings were made of Sylgard184 (Dow Corning) (1 part curing base and 10 parts elastomer base, cured at 60 uC for 45 minutes) using glass molds and were attached onto the MEAs after surface modification. Recordings were obtained from 12-16 D. old cultures. Cultures were kept in the incubator between recording sessions.
N-1(3-[trimethoxysilyl]propyl)-diethylenetriamine (DETA) was used to modify the MEAs to enhance cell attachment since the use of synthetic substrates such as DETA, allows for reproducible and precise quantification of the culture substrate properties. Glass coverslips (18 mm diameter, Number 1; VWR) were cleaned in two steps. First, they were soaked in 50/50% HCl (37%) (VWR)/methanol (Sigma), followed by H2SO4 (98%) (VWR) treatment. Next, they were rinsed in double distilled water. The coverslips were then boiled in deionized water, rinsed with acetone, and oven dried. The MEAs were initially cleaned overnight in 2% Tergazyme (Sigma) detergent solution. They were then rinsed in distilled water and plasma cleaned in a plasma cleaner (Harrick Plasma) for 30 mins. The N-1(3-[trimethoxysilyl]propyl)-diethylenetriamine (DETA) (United Chemical Technologies) surface assembled monolayer (SAM) film was formed by the reaction of the cleaned surfaces with a 0.1% (v/v) mixture of the organosilane in toluene. The DETA/toluene solution containing the MEAs was heated to 70 uC, rinsed with toluene, reheated to 70 uC, and then oven dried. Surfaces were characterized using contact angle measurement and X-ray photoelectron spectroscopy (XPS) as described previously.
(§1) All applied procedures were approved by the Institutional Animal Care and Use Committee of UCF. The protocol was modified from previously published work concerning embryonic rat hippocampal cultures. Pregnant rats, 18 days in gestation, obtained from Charles River were euthanized with carbon dioxide and the fetuses were collected in ice cold Hibernate E (BrainBits)/B27/Glutamax™/Antibiotic-Antimycotic (Invitrogen) (dissecting medium). Each fetus was decapitated and the whole brain was transferred to fresh ice cold dissecting medium. After isolation, the hippocampi were collected in a fresh tube of dissecting medium. Hippocampal neurons were obtained by triturating the tissue using a Pasteur pipette. In order to remove any debris from damaged cells the 1 ml cell suspension was layered over a 4 ml step gradient (Optipep diluted 0.505:0.495 (v/v) with the dissecting medium and then made to 15%, 20%, 25% and 35% (v/v) in the dissecting medium) followed by centrifugation for 15 min at 800 g and 4 uC. After centrifugation, one strong band of cells was obtained. This band of cells was resuspended in culture medium (Neurobasal/B27/Glutamax™/Antibiotic-Antimycotic) and plated at a density of 100 cells/mm2 on DETA coated coverslips for patch clamp electrophysiology and at 200 cells/mm2 on the MEAs.
(§2) Different concentrations of Aβ (1-42) (Bachem) aggregates were prepared according to the protocol by Klein [1] in Neurobasal medium without phenol red, and quantified using Immunoblots. Curcumin (Cayman Chemicals) was prepared and the concentration chosen according to previously published protocols.
In all experiments with MEAs Aβ was administered to the cells on day 16 in vitro. We chose experimental paradigms similar to those used for patch clamp electrophysiology, to study the potential therapeutic effects of curcumin. In coadministration experiments, cells were exposed to a mixture of 100 nM Aβ and 1 mM Curcumin for 24 hrs, and recordings were performed. […]

The test system is the same in data set [2]. The experiment in a line: Whole cell patch clamp electrophysiology of hippocampal neurons exposed to Aβ. The class given is cell-based.
Text: as §1, §2
For patch clamp electrophysiology experiments, Aβ was administered to the cells on day 10 in vitro and recordings were performed after 24 hrs to obtain baseline values for control cells and Aβ treated cells. In coadministration experiments, a mixture of 100 nM Aβ and 1 mM curcumin was administered for 24 hrs after which patch clamp electrophysiology recordings were performed. In sequential administration, cells were initially exposed to freshly aggregated Aβ alone, followed by replacement of the Aβ solution with curcumin for 24 hrs patch clamp recordings were performed 24 hrs after curcumin treatment. Whole-cell patch clamp recordings were performed at room temperature in a recording chamber on the stage of a Zeiss Axioscope 2 FS Plus upright microscope as described in [44].
(In patch-clamp work, channel activity is measured electrically.)

Data set [3] addresses T1, Aβ oligomerization (Homo sapiens, UniProt P05067). Briefly: Immunoblot of Aβ oligomers. Type of data set: biochemical. The note with it: immunoblot lane 2. For orientation: In western blotting, separated proteins are transferred to a membrane and probed.
Procedure: Different concentrations of Aβ (1-42) (Bachem) aggregates were prepared according to the protocol by Klein [1] in Neurobasal medium without phenol red, and quantified using Immunoblots. Curcumin (Cayman Chemicals) was prepared and the concentration chosen according to previously published protocols [20].
Data set [4] addresses T1, Aβ oligomerization. The note with it: literature [20], compared with Ibuprofen; cited from earlier work.
The next data set concerns amyloid plaque burden. The note with it: transgenic APPsw mice; cited from earlier work.
The test system of a further data set is hippocampal cells. Briefly: Cell survival (live dead assay, MTT assay) after Aβ treatment. Type of data set: cell-based, rat. How it is done: To confirm this finding a MTT assay (3-[4,5-dimethylthiazol-2-yl]-2,5-diphenyl tetrazolium bromide) was performed on the amyloid treated cells and this supported the results obtained with the live dead assay.
For orientation: Tetrazolium dyes change colour on reduction, which living cells bring about.

[5] abbreviates: all measured concentrations of Aβ.

T1 sequence (P05067 672-713 limits assumed): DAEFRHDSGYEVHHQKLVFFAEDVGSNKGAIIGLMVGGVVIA

On to `COc1cc(/C=C/C(=O)CC(=O)/C=C/c2ccc(O)c(OC)c2)ccc1O` [curcumin], for which the “time at which drop in firing frequency reached a plateau” value in data set [1] (after curcumin and Aβ were coadministered) is listed as “about 18 hrs”. Besides, in data set [1] (after curcumin was applied post Aβ exposure), the “time at which recovery of spontaneous firing was observed” value is recorded as “around 10 hrs”. Also, in data set [2] (low doses of curcumin), the “ameliorating Aβ toxicity, coadministration versus administration after 24 h Aβ” value was “more successful in ameliorating Aβ toxicity when coadministered with Aβ”. Also, the “Aβ oligomerization in the presence of Curcumin” value at Aβ oligomerization [3] was “apparent inhibition of Aβ oligomerization”. Also, at Aβ oligomerization [4], the “Aβ oligomer formation and Aβ toxicity” value is “inhibiting Aβ oligomer formation and Aβ toxicity at significantly lower concentrations than Ibuprofen”. Besides, the amyloid plaque burden result in the data set with amyloid plaque burden is “reduce amyloid plaque burden”.
Consider “Aβ: Amyloid beta (1-42) peptide (Bachem), soluble oligomer aggregates used as neurotoxicant [Aβ (1-42)]”, for which the “time until the cells stopped firing” value in data set [1] (50 nM Aβ, lowest concentration) is given as “about 11 h”. In addition, the “time until spiking activity of the cells stopped” value in data set [1] (Aβ, highest concentration tested) is given as “about 150 min”. Also, in data set [1] (setting [5]), the “effect on spontaneous spiking activity” value is reported as “completely abolishes spontaneous spiking activity” and the “firing frequency preceding blockade of spontaneous activity” value is “significant increase in firing frequency”. In addition, in data set [2] (100 nM Aβ, 24 h), the “outward (K+) currents” value is on record as “increase in the amplitude of the outward (K^+) currents” and the resting membrane potential result is listed as “depolarization in the resting membrane potential”. Moreover, the spontaneous firing result in data set [2] (100 nM Aβ, 24 h, 30 exposed cells) is “no spontaneous action potentials were recorded”. For the same compound, the “cell survival compared to the control” value in the data set with hippocampal cells (100 nM Aβ, 24 hours and 7 days) is on record as “small differences in cell survival compared to the control”. The cell death entry in the data set on hippocampal cells (high concentrations of Aβ, cells on MEAs) was “high cell death”.
